Key:
[1] = target: T1, HEK293 cells stably expressing normal human αVβ3 (Homo sapiens, UniProt P05106+P06756); assay: αVβ3-mediated cell adhesion to vitronectin; type: cell-based
T1 construct: expressed in transfected cells; host or cells: HEK293
Description: Washed platelets are prepared as per the primary screening assay, suspended in HBMT containing 1 mM MgCl2 (platelet adhesion to collagen) or 2 mM CaCl2/1 mM MgCl2 (platelet adhesion to fibrinogen) and adjusted to a count of 250×10^9/L. HEK293 cells stably expressing normal human αVβ3 or normal human αIIbβ3 are suspended in HBMT containing either 1 mM MgCl2 (HEK293 cells expressing αVβ3 for adhesion to vitronectin) or 2 mM CaCl2/1 mM MgCl2 (HEK293 cells expressing αIIbβ3 for adhesion to fibrinogen); the cell counts are adjusted to 10^6/mL. Polystyrene 96-well microtiter plates (Nunc) are coated with either fibrinogen (50 μg/mL), vitronectin (5 μg/mL), or collagen (33 μg/mL, rat tail type 1; Becton Dickinson) for 1 hour, and blocked with HBMT for at least 1 hour. Platelets and cells are treated with the compound of Example 27 of the current invention or 2-ethyl-7-(piperazin-1-yl)-5H-[1,3,4]thiadiazolo-[3,2-a]pyrimidin-5-one of U.S. Ser. No. 12/514,286 in the presence or absence of anti-α2β1 mAb 6F1, anti-αIIbβ3 mAb 10E5, anti-αIIbβ3 mAb 10E5+αVβ3 mAb 7E3, αVβ3-specific mAb LM609, or anti-αVβ3+αIIbβ3 mAb 7E3, for 15 minutes at 37° C. before being added to the microtiter wells. After adhering for 1 hour at either 22° C. (platelets) or 37° C. (cells), nonadherent platelets or cells are removed by washing 3 times with HBMT containing the same ion composition as the buffer used for adhesion. […] In other experiments, 8-chambered glass coverslips (Nunc) are coated with collagen (33 μg/mL) for 1 hour at 22° C. Washed platelets are allowed to adhere for 1 hour at 22° C. and the coverslips are stained with the Alexa-488-conjugated β3-specific mAb 7H2. Adherent platelets are imaged using a Zeiss LSM-510 confocal system with Axiovert 200 microscope (Carl Zeiss, Heidelberg, Germany) using a Plan-Apochromat 100/1.4 NA oil DIC objective.

[2] = system: washed platelets; assay: Effect of Mg2+ concentration on platelet adhesion to fibrinogen; type: cell-based, human; conditions: for IC50: Homo sapiens, Platelet, mean±SD, three experiments
Description: Washed platelets in buffers containing 1 mM Ca^2+ plus 1 mM, 20 mM, or 50 mM Mg^2+ are added to wells pre-coated with fibrinogen (50 μg/ml) for 60 min at 22° C. After washing, adherent platelets are detected by acid phosphatase activity. Results are expressed as mean±SD (n=3 for the compound of Example 27 of the current invention and 2-ethyl-7-(piperazin-1-yl)-5H-[1,3,4]thiadiazolo-[3,2-a]pyrimidin-5-one (a compound disclosed and claimed in U.S. Ser. No. 12/514,286); n=2 for tirofiban).

T1 sequence (P06756 31-889 limits assumed): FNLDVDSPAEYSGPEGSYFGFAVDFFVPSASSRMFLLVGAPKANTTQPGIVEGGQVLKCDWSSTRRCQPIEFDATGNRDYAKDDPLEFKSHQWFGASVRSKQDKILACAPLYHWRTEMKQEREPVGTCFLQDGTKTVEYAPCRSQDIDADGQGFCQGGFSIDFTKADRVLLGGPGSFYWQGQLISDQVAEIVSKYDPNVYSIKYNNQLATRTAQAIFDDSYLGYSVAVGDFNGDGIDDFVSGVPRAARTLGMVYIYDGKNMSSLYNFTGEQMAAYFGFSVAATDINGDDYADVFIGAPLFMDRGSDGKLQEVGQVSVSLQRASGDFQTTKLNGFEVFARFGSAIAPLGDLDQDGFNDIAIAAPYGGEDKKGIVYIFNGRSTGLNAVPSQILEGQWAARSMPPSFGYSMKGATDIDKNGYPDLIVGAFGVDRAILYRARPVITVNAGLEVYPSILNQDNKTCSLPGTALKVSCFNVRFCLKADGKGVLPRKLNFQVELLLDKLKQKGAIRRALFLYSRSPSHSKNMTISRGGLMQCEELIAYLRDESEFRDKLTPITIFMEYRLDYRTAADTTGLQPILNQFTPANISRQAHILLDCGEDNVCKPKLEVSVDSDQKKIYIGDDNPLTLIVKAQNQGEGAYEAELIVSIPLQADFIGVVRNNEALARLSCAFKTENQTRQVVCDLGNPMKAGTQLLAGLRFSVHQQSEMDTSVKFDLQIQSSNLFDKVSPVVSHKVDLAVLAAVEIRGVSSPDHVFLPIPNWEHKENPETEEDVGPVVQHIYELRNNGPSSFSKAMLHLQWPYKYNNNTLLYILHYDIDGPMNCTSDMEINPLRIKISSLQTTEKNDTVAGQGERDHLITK
T1 sequence (P06756 891-1048 partner limits assumed): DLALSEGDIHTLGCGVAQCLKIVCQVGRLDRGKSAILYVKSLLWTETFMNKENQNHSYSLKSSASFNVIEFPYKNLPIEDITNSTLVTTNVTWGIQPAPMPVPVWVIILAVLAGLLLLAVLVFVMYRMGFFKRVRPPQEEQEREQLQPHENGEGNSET
T1 sequence (P05106 27-788): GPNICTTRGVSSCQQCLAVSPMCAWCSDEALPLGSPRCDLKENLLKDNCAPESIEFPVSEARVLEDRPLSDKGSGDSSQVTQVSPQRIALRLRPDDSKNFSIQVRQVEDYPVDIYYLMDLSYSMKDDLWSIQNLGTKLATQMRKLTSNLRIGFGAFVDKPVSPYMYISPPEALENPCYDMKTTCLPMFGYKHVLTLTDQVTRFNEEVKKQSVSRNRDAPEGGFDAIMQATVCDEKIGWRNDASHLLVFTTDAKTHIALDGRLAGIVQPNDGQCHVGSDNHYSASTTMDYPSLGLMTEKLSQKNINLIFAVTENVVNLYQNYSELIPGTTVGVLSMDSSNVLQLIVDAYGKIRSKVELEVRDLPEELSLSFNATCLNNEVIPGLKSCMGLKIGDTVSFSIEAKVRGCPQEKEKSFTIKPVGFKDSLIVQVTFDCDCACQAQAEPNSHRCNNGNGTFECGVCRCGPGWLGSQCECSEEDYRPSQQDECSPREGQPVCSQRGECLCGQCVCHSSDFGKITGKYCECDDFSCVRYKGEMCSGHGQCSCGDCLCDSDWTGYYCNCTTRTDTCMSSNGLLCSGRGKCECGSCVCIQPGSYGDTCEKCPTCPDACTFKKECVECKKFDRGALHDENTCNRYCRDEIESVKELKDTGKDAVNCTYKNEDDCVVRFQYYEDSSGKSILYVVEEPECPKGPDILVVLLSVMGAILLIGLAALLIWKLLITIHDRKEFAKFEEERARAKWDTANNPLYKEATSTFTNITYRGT

NCC(=O)Nc1cccc(-c2nn3c(=O)cc(N4CCNCC4)nc3s2)c1 [Example 27, 2-amino-N-(3-(5-oxo-7-(piperazin-1-yl)-5H-[1,3,4]thiadiazolo[3,2-a]pyrimidin-2-yl)phenyl)acetamide]
selectivity for αIIbβ3 compared to αVβ3 [1]: selective for αIIbβ3 compared to αVβ3
decrease in affinity going from 1 to 50 mM Mg2+ ([2]; 1 to 50 mM Mg2+): ~80%
increase in IC50 going from 1 to 50 mM Mg2+ ([2]; 1 to 50 mM Mg2+): ~4.5 fold
IC50 ([2]; 1 mM Mg2+): 290 ± 100 nM
IC50 ([2]; 20 mM Mg2+): 910 ± 210 nM
IC50 ([2]; 50 mM Mg2+): 1300 ± 350 nM

Reference: US9066948B2, “Oxadiazolo[3,2-a]pyrimidines and thiadiazolo[3,2-a]pyrimidines” (THE UNITED STATES OF AMERICA AS REPRESENTED BY THE …, priority 2010, dated 2015)
